# Measured values as given in the NIST ThermoML archive (doi:10.1021/acs.jced.7b00242).
# ± gives the expanded uncertainty stated by the source.
# How the values were obtained:
# [1] = refractive index (Na D-line) (dimensionless)
# [2] = 298.15 K; 101 kPa; Liquid; Vibrating tube method
# [3] = 303.15 K; 101 kPa; Liquid; Vibrating tube method
# [4] = 303.15 K; Liquid; Ring tensiometer
# [5] = 313.15 K; 101 kPa; Liquid; Vibrating tube method
# [6] = 313.15 K; Liquid; Ring tensiometer
# [7] = 323.15 K; 101 kPa; Liquid; Vibrating tube method
# [8] = 323.15 K; Liquid; Ring tensiometer
# [9] = 333.15 K; 101 kPa; Liquid; Vibrating tube method
# [10] = 333.15 K; Liquid; Ring tensiometer
# [11] = 343.15 K; 101 kPa; Liquid; Vibrating tube method
# [12] = 343.15 K; Liquid; Ring tensiometer
# [13] = 353.15 K; 101 kPa; Liquid; Vibrating tube method
# [14] = 353.15 K; Liquid; Ring tensiometer
# [15] = 363.15 K; 101 kPa; Liquid; Vibrating tube method
# [16] = 363.15 K; Liquid; Ring tensiometer
# [17] = 293.15 K; 101 kPa; Liquid; Vibrating tube method
# [18] = 298.15 K; 101 kPa; Liquid; Concentric cylinders viscometry
# [19] = 298.15 K; Liquid; Ring tensiometer
# [20] = 303.15 K; 101 kPa; Liquid; Concentric cylinders viscometry
# [21] = 313.15 K; 101 kPa; Liquid; Concentric cylinders viscometry
# [22] = 323.15 K; 101 kPa; Liquid; Concentric cylinders viscometry
# [23] = 333.15 K; 101 kPa; Liquid; Concentric cylinders viscometry
# [24] = 343.15 K; 101 kPa; Liquid; Concentric cylinders viscometry
# [25] = 353.15 K; 101 kPa; Liquid; Concentric cylinders viscometry
# [26] = 363.15 K; 101 kPa; Liquid; Concentric cylinders viscometry
# [27] = 293.15 K; 101 kPa; Liquid; Standard Abbe refractometry
# [28] = 298.15 K; 101 kPa; Liquid; Standard Abbe refractometry
# [29] = 303.15 K; 101 kPa; Liquid; Standard Abbe refractometry
# [30] = 313.15 K; 101 kPa; Liquid; Standard Abbe refractometry
# [31] = 323.15 K; 101 kPa; Liquid; Standard Abbe refractometry
# [32] = 333.15 K; 101 kPa; Liquid; Standard Abbe refractometry
# [33] = 343.15 K; 101 kPa; Liquid; Standard Abbe refractometry
# [34] = 353.15 K; 101 kPa; Liquid; Standard Abbe refractometry
# [35] = 363.15 K; 101 kPa; Liquid; Standard Abbe refractometry
Structure (SMILES),mass density [2] [kg/m3],mass density [3] [kg/m3],surface tension liquid-gas [4] [mN/m],mass density [5] [kg/m3],surface tension liquid-gas [6] [mN/m],mass density [7] [kg/m3],surface tension liquid-gas [8] [mN/m],mass density [9] [kg/m3],surface tension liquid-gas [10] [mN/m],mass density [11] [kg/m3],surface tension liquid-gas [12] [mN/m],mass density [13] [kg/m3],surface tension liquid-gas [14] [mN/m],mass density [15] [kg/m3],surface tension liquid-gas [16] [mN/m],Normal melting temperature (Crystal; DTA) [°C],viscosity [21] [mPa·s],viscosity [22] [mPa·s],viscosity [23] [mPa·s],viscosity [24] [mPa·s],other results
CCCCCCCCCCn1cc[n+](C)c1.[Cl-] [1-decyl-3-methylimidazolium chloride],984 ± 20,979.7 ± 20,34 ± 0.9,974.4 ± 20,30.2 ± 0.9,968.1 ± 20,28.4 ± 0.9,962.4 ± 20,27.8 ± 0.9,956.4 ± 20,27 ± 0.9,950.7 ± 20,26.2 ± 0.9,943.8 ± 20,25.5 ± 0.9,28.96 ± 1.1,–,–,–,–,viscosity (313.15 K; 100 kPa; Liquid; Concentric cylinders viscometry): 3716 ± 630 mPa·s; viscosity (323.15 K; 100 kPa; Liquid; Concentric cylinders viscometry): 1613 ± 270 mPa·s; viscosity (333.15 K; 100 kPa; Liquid; Concentric cylinders viscometry): 778.9 ± 130 mPa·s; viscosity (343.15 K; 100 kPa; Liquid; Concentric cylinders viscometry): 411.2 ± 67 mPa·s; viscosity (353.15 K; 100 kPa; Liquid; Concentric cylinders viscometry): 233.7 ± 38 mPa·s; viscosity (363.15 K; 100 kPa; Liquid; Concentric cylinders viscometry): 141.7 ± 23 mPa·s; refractive index ([1]; 293.15 K; 100 kPa; Liquid; Standard Abbe refractometry): 1.5002 ± 0.0048; refractive index ([1]; 298.15 K; 100 kPa; Liquid; Standard Abbe refractometry): 1.4988 ± 0.0054; refractive index ([1]; 303.15 K; 100 kPa; Liquid; Standard Abbe refractometry): 1.4972 ± 0.0058; refractive index ([1]; 313.15 K; 100 kPa; Liquid; Standard Abbe refractometry): 1.4937 ± 0.0064; refractive index ([1]; 323.15 K; 100 kPa; Liquid; Standard Abbe refractometry): 1.4897 ± 0.0064; refractive index ([1]; 333.15 K; 100 kPa; Liquid; Standard Abbe refractometry): 1.4864 ± 0.0068; refractive index ([1]; 343.15 K; 100 kPa; Liquid; Standard Abbe refractometry): 1.4834 ± 0.0074; refractive index ([1]; 353.15 K; 100 kPa; Liquid; Standard Abbe refractometry): 1.4806 ± 0.0078; refractive index ([1]; 363.15 K; 100 kPa; Liquid; Standard Abbe refractometry): 1.4788 ± 0.009
CCCCCCCCCCCCn1cc[n+](C)c1.O=S(=O)([N-]S(=O)(=O)C(F)(F)F)C(F)(F)F,1248 ± 20,1242 ± 20,27.7 ± 0.9,1232.2 ± 20,26.9 ± 0.9,1224.1 ± 20,25.9 ± 0.9,1216 ± 20,24.9 ± 0.9,1208.1 ± 20,24.1 ± 0.9,1200 ± 20,23.3 ± 0.9,1191.8 ± 20,22.5 ± 0.9,22.50 ± 1.1,63.54 ± 10,42.41 ± 6.8,29.67 ± 4.8,21.63 ± 3.5,"mass density [17]: 1253.1 ± 20 kg/m3; viscosity [18]: 130.5 ± 21 mPa·s; surface tension liquid-gas [19]: 28.1 ± 0.9 mN/m; viscosity [20]: 101.1 ± 16 mPa·s; viscosity [25]: 16.31 ± 2.6 mPa·s; viscosity [26]: 12.65 ± 2 mPa·s; refractive index [1, 27]: 1.4385 ± 0.004; refractive index [1, 28]: 1.437 ± 0.004; refractive index [1, 29]: 1.4354 ± 0.004; refractive index [1, 30]: 1.4324 ± 0.004; refractive index [1, 31]: 1.4295 ± 0.004; refractive index [1, 32]: 1.4265 ± 0.004; refractive index [1, 33]: 1.4237 ± 0.004; refractive index [1, 34]: 1.4209 ± 0.004; refractive index [1, 35]: 1.4179 ± 0.004"
CCCCCCCCCCCCCCn1cc[n+](C)c1.O=S(=O)([N-]S(=O)(=O)C(F)(F)F)C(F)(F)F,–,1197.1 ± 20,–,1187.6 ± 20,–,1180 ± 20,–,1171.3 ± 20,–,1163.1 ± 20,–,1154.6 ± 20,–,1146.5 ± 20,–,34.4 ± 1.1,83.54 ± 13,54.36 ± 8.7,37.21 ± 6,26.58 ± 4.3,surface tension liquid-gas (303.15 K; Metastable liquid; Ring tensiometer): 26.3 ± 0.9 mN/m; surface tension liquid-gas (313.15 K; Ring tensiometer; Liquid): 25.3 ± 0.9 mN/m; surface tension liquid-gas (323.15 K; Ring tensiometer; Liquid): 24.5 ± 0.9 mN/m; surface tension liquid-gas (333.15 K; Ring tensiometer; Liquid): 23.7 ± 0.9 mN/m; surface tension liquid-gas (343.15 K; Ring tensiometer; Liquid): 22.9 ± 0.9 mN/m; viscosity [25]: 19.68 ± 3.1 mPa·s; surface tension liquid-gas (353.15 K; Ring tensiometer; Liquid): 22.3 ± 0.9 mN/m; viscosity [26]: 15.04 ± 2.4 mPa·s; surface tension liquid-gas (363.15 K; Ring tensiometer; Liquid): 21.7 ± 0.9 mN/m; refractive index ([1]; 303.15 K; 101 kPa; Metastable liquid; Standard Abbe refractometry): 1.4384 ± 0.004; refractive index ([1]; 313.15 K; 101 kPa; Standard Abbe refractometry; Liquid): 1.4352 ± 0.004; refractive index ([1]; 323.15 K; 101 kPa; Standard Abbe refractometry; Liquid): 1.4322 ± 0.004; refractive index ([1]; 333.15 K; 101 kPa; Standard Abbe refractometry; Liquid): 1.4292 ± 0.004; refractive index ([1]; 343.15 K; 101 kPa; Standard Abbe refractometry; Liquid): 1.4262 ± 0.004; refractive index ([1]; 353.15 K; 101 kPa; Standard Abbe refractometry; Liquid): 1.4233 ± 0.004; refractive index ([1]; 363.15 K; 101 kPa; Standard Abbe refractometry; Liquid): 1.4204 ± 0.004
CCCCCCCCCCCC[n+]1ccn(C)c1.[Cl-] [1-dodecyl-3-methylimidazolium chloride],–,–,–,–,–,–,–,–,–,–,–,–,–,–,–,96.22 ± 1.1,–,–,–,–,–
CCCCCCCCCCn1cc[n+](C)c1.O=S(=O)([N-]S(=O)(=O)C(F)(F)F)C(F)(F)F,1278.4 ± 20,1274.2 ± 20,29.2 ± 0.9,1265.3 ± 20,28.3 ± 0.9,1256.3 ± 20,27.5 ± 0.9,1247.5 ± 20,26.9 ± 0.9,1239.4 ± 20,26.3 ± 0.9,1230.6 ± 20,25.7 ± 0.9,1222.3 ± 20,25.2 ± 0.9,3.04 ± 1.1,50.86 ± 8.1,34.51 ± 5.5,24.5 ± 3.9,18.08 ± 2.9,"mass density (273.15 K; 101 kPa; Liquid; Vibrating tube method): 1292.7 ± 20 kg/m3; mass density (289.15 K; 101 kPa; Liquid; Vibrating tube method): 1287.3 ± 20 kg/m3; viscosity (293.15 K; 101 kPa; Liquid; Concentric cylinders viscometry): 139.9 ± 22 mPa·s; mass density [17]: 1282.3 ± 20 kg/m3; viscosity [18]: 101.2 ± 16 mPa·s; surface tension liquid-gas [19]: 29.8 ± 0.9 mN/m; viscosity [20]: 79.17 ± 13 mPa·s; viscosity [25]: 13.78 ± 2.2 mPa·s; viscosity [26]: 10.79 ± 1.7 mPa·s; refractive index [1, 27]: 1.4366 ± 0.004; refractive index [1, 28]: 1.4351 ± 0.004; refractive index [1, 29]: 1.4336 ± 0.004; refractive index [1, 30]: 1.4306 ± 0.004; refractive index [1, 31]: 1.4278 ± 0.004; refractive index [1, 32]: 1.425 ± 0.004; refractive index [1, 33]: 1.4222 ± 0.004; refractive index [1, 34]: 1.4194 ± 0.004; refractive index [1, 35]: 1.4166 ± 0.004"
